Test system: HepG2 TRIB1 mRNA expression, RT-qPCR, 6 h
Experiment: TRIB1 mRNA induction under cholesterol depletion, late-stage follow-up, mechanism study for Trib1 inducer project, cell-based, HepG2, RT-PCR, cherry-pick (AID 1053152)
Conditions: hits give high values

CN1C(=O)c2cc(NC(=O)c3ccc(C(F)(F)F)cc3)ccc2OC[C@@H]2O[C@H](CC(=O)NC3Cc4ccccc4C3)CC[C@@H]21
fold induction: 2.5

Reference: PubChem BioAssay AID1053152 (Broad Institute, 2014)
